From US20220288052A1, “COMPOUND FOR COMBINATION TREATMENT” (priority 2019, published 2022)
Like-named read-outs stand apart in the source and are kept apart here.

Tests used:
[1] = molecular target: NET (Homo sapiens, UniProt P23975); assay: MDS LeadProfilingScreen, NET; assay type: binding
[2] = test system: nialamide pre-treated mice; assay: Nialamide-induced 5-HT syndrome (m5-HT); assay type: in vivo, mouse
Procedure: 50 mg/kg nialamide s.c. t=120 min. Compound (I) p.o. t=0. n=4.
Compound (I) was tested in a classical test often used to measure the ability of a compound to block the reuptake of 5-HT in vivo: nialamide-induced 5-HT syndrome (m5-HT). In addition, compound (I) was tested in a locomotor activity paradigm (mLA) as a measure of its ability to block the reuptake of DA and therefore induce motility. It is generally accepted that >60% DA transporter blockade is needed to induce increased motility in this test.

[3] = test system: rat corpus cavernosum strips; assay: Corpus cavernosum contractility
Procedure: FIG. 29: Original traces showing the effect of compound (I) on resting tone in rat corpus cavernosum strips. Increasing concentrations (10^−9-3×10^−5 M) of compound (I) were added. Compound (I) induced small relaxations, while at the highest concentration (3×10^−5 M) contraction was observed occasionally (lower trace).
FIG. 30: Average results showing the effect of compound (I) on resting tone in rat corpus cavernosum strips. Increasing concentrations (10^−9-3×10^−5 M) of compound (I) were added. Compound (I) induced small relaxations, while at the highest concentration (3×10^−5 M) contraction was observed occasionally (lower trace). Compound (I) responses were obtained in the presence of vehicle, sildenafil (10^−7 M), guanethidine (10^−5 M), and L-NOARG (10^−4 M). Results are means±s.e. mean of preparations from 5 rats.
FIG. 31: Original traces showing relaxations to compound (I) in rat corpus cavernosum strips contracted with phenylephrine (Phe). Representative traces show compound (I) relaxation in the presence of vehicle, guanethidine (10^−5 M), L-NOARG (10^−4 M), sildenafil (10^−7 M), in phenylephrine-contracted preparations.
FIG. 32: Average relaxations induced by compound (I) in rat corpus cavernosum strips. In phenylephrine-contracted preparations, increasing concentrations (10^−9-3×10^−5 M) of compound (I). […]

[4] = molecular target: CYP 3A4 (Homo sapiens, UniProt P08684); assay: CYP450 inhibition, cocktail of selective substrates, 3A4; assay type: in vitro ADME; settings: CYP 3A4, Midazolam to 1′-hydroxymidazolam; read-out: IC50 of compound (I)
Sequence of CYP 3A4 (P08684 whole entry): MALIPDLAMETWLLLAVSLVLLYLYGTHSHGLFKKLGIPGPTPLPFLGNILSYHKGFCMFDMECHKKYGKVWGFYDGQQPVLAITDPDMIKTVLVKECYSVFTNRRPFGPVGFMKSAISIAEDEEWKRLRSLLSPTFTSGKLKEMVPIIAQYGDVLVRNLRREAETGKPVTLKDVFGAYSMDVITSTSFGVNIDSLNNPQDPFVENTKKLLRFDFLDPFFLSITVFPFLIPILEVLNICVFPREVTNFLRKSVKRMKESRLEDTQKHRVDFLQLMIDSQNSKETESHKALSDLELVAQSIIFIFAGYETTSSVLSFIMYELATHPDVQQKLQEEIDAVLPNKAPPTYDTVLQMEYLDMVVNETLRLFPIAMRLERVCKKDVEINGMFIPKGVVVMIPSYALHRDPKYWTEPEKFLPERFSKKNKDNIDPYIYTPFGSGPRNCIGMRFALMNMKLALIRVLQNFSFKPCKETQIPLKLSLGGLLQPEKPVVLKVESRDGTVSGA
Procedure: (§1) Compound (I) was tested for CYP450 inhibition using a cocktail of selective substrates. […] This might be addressed later in a clinical study.

[5] = test system: brain levels of dopamine (DA); assay: In vivo microdialysis, DA; design: species or system rat
Procedure: The purpose of the present study was to examine, by in vivo microdialysis technique, the effects after administration of compound (I) on brain levels of serotonin, noradrenalin and dopamine within the ventral hippocampus (Hipp), prefrontal cortex (PFC), striatum (STR) and nucleus accumbens (N.Acc) of anaesthetized rats and mice. Compound (I) represents dual acting serotonin/dopamine reuptake inhibitors and was tested in comparison to citalopram a selective serotonin uptake inhibitor. Compound (I) was tested following subcutaneous injections at dose levels between 0.25-30 mg/kg. […] Pre-treatment with the 5-HT1A autoreceptor antagonist WAY-100635 induced a further minor increase of the compound (I) (0.25 mg/kg) induced increase in the PFC level of 5-HT. […]

[6] = test system: plasma protein; assay: Plasma protein binding by equilibrium dialysis, mouse; assay type: in vitro ADME
Procedure: The plasma protein binding was tested in rat, mouse, dog and human plasma by equilibrium dialysis. The plasma protein binding of this compound is remarkably low (Table 24).

[7] = molecular target: 5-HT transporter (Rattus norvegicus, UniProt P31652); assay: ^3H-Citalopram binding, rat
Sequence of 5-HT transporter (Rattus norvegicus, UniProt P31652) (P31652 whole entry): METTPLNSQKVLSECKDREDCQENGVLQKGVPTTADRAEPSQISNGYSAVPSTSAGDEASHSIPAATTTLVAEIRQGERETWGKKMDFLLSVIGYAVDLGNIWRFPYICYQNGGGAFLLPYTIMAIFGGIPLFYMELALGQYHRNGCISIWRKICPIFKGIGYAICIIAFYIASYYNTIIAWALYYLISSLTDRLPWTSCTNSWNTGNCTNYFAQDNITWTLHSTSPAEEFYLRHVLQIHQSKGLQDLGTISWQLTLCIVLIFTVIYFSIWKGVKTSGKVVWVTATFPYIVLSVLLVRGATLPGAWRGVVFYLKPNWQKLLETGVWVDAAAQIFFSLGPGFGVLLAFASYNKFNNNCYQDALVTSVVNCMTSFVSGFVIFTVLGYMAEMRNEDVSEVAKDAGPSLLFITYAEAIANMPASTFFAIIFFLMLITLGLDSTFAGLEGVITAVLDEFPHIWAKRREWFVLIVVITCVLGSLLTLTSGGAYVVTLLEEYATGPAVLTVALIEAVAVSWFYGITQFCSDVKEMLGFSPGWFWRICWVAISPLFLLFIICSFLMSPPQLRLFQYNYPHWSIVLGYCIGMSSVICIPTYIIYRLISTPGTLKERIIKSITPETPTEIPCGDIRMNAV
Excerpt: (§2) Compound (I) has been characterized as a monoamine reuptake inhibitor, based on the profile in a series of functional assays (Table 2).

[8] = Tissue distribution after single dose, rat; assay type: in vivo; settings: sc; for AUC(0-t): male, Wistar, rat 5 mg/kg s.c., read-out: AUC(0-24 h); for half-life: rat, male Wistar rats 5 mg/kg s.c., read-out: T½ (converted)
Procedure: Compound (I) was dosed to male Wistar rats 5 mg/kg s.c. Plasma was taken 0.5, 1, 2, 4, 6 and 24 post dose. Brain, liver and lung were taken 1, 4 and 24 hours post dose.
The plasma profile was again essentially the same as for the single dose study showing the same T½ of 0.8 h. AUC and T½ were calculated for plasma and organs, even though the data are very sparse for the organs.

[9] = molecular target: CYP1A2 (Homo sapiens, UniProt P05177); assay: CYP450 inhibition, cocktail of selective substrates, 1A2; assay type: in vitro ADME; settings: CYP 1A2, Phenacetin to Paracetamol; read-out: IC50 of compound (I)
Sequence of CYP1A2 (P05177 whole entry): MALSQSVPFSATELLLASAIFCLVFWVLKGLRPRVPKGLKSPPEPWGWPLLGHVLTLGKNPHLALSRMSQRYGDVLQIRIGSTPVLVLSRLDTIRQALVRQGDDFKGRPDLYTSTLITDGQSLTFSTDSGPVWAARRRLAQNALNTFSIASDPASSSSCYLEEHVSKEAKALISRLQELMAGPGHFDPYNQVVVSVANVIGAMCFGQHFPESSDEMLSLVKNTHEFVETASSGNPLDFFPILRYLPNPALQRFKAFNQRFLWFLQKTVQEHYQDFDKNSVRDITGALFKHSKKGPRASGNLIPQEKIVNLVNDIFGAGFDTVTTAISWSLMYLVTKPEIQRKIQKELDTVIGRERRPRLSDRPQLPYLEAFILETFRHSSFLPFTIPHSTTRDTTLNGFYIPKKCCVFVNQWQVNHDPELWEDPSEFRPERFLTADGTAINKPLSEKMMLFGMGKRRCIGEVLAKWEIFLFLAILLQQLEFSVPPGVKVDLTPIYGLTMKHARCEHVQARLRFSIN
Procedure: as §1

[10] = Metabolic stability in liver microsomes, rat; assay type: in vitro ADME
Procedure: (§3) The metabolic stability of compound (I) was tested in liver microsomes from all in house available species at 1 and 5 μM. One metabolite of 16 mass units higher than parent, was found in all incubations, except with human liver microsomes.

[11] = Metabolic stability in liver microsomes, minipig; assay type: in vitro ADME
Procedure: as §3

[12] = molecular target: 5-HT transporter (Homo sapiens, UniProt P31645); assay: ^3H-uptake human, 5-HT transporter; assay type: biochemical
Sequence of 5-HT transporter (Homo sapiens, UniProt P31645) (P31645 whole entry): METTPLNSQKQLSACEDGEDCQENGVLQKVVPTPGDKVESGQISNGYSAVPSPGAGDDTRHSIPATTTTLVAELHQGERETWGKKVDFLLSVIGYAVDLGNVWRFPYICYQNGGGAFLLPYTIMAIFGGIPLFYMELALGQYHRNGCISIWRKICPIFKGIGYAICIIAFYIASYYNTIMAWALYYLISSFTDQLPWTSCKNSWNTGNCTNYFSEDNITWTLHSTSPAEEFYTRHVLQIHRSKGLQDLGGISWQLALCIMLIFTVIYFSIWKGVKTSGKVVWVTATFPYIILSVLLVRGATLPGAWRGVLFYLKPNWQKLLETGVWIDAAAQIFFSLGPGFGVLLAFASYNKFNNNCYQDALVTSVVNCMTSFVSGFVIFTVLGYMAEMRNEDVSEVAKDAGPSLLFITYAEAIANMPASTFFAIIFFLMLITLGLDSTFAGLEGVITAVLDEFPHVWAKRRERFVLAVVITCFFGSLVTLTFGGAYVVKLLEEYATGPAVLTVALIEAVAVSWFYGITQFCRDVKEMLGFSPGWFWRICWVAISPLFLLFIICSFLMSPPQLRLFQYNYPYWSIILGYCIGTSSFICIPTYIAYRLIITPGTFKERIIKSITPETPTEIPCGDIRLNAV
Excerpt: as §2

[13] = Metabolic stability in liver microsomes, mouse; assay type: in vitro ADME
Procedure: as §3

Sequence of NET (P23975 whole entry): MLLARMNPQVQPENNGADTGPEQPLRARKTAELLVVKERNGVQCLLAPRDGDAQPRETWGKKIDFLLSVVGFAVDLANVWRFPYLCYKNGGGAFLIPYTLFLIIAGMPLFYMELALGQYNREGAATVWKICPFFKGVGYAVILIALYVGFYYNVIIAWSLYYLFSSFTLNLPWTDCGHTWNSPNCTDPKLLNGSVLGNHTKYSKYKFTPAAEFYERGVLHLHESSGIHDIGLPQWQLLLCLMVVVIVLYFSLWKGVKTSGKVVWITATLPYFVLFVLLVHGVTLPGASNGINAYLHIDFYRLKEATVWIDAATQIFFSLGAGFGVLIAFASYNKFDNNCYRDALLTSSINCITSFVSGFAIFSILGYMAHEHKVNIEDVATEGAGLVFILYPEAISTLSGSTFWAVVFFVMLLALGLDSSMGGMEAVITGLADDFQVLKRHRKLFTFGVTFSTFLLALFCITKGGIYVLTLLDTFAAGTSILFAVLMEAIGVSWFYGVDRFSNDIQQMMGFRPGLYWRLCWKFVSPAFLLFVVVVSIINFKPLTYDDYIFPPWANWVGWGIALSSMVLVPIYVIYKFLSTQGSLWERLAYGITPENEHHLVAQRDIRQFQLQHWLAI

O=c1ccc2ccc(O[C@@H]3C[C@H]4CC[C@@H](C3)N4)cc2o1 [Compound (I), exo-7-(8-aza-bicyclo[3.2.1]oct-3-yloxy)-chromen-2-one]
Ki [1]: 594 nM | inhibition at 10 µM ([1]; NET, Human, 10 μM): 92% | MED ([2]; m5-HT, p.o. 0 min): 0.1 mg/kg | Potency in 5-HT syndrome relative to the reference compounds tested ([2]; nialamide pre-treated mice): 100 times | Effect on resting tone ([3]; resting corpus cavernosum strips, 10^−9-3×10^−5 M): only small relaxations | Relaxation of contracted strips ([3]; strips contracted with phenylephrine (10^−6 M)): concentration-dependent relaxations were observed at higher concentrations | IC50 [4]: > 100000 nM | DA (AUC0-160 min) ([5]; Hippocampus, 3 mg/kg s.c., 3 mg/kg): 142±36% | DA (AUC0-160 min) ([5]; N.Acc, 10 mg/kg s.c., 10 mg/kg): 192±42% | DA (AUC0-160 min) ([5]; N.Acc, 30 mg/kg s.c., 30 mg/kg): 604±88% | DA (AUC0-160 min) ([5]; Pre-frontal cortex, 1 mg/kg s.c., 1 mg/kg): 132±9% | DA (AUC0-160 min) ([5]; Pre-frontal cortex, 10 mg/kg s.c., 10 mg/kg): 211±40% | DA (AUC0-160 min) ([5]; Pre-frontal cortex, WAY100365 0.1 mg/kg + compound (I) 0.25 mg/kg): 55 ± 2% | DA (AUC0-160 min) ([5]; Striatum, 3 mg/kg s.c., 3 mg/kg): 137±21% | DA (AUC0-160 min) ([5]; Striatum, 10 mg/kg s.c., 10 mg/kg): 134±43% | Kinetic pattern of DA increase in microdialysis (nucleus accumbens) ([5]; rats, 30 mg/kg s.c., compared to bupropion 10 mg/kg s.c. and cocaine 25 mg/kg i.p.): slower kinetic pattern | fraction unbound at 2710 ng/ml [6]: 0.747 | Ki [7]: 0.28 nM | AUC(0-t) ([8]; Brain): 3190 ng·h/mL | AUC(0-t) ([8]; Liver): 493 ng·h/mL | AUC(0-t) ([8]; Lung): 17600 ng·h/mL | AUC(0-t) ([8]; Plasma): 805 ng·h/mL | half-life ([8]; Brain): 3.6 h | half-life ([8]; Lung): 2.6 h | half-life ([8]; Plasma): 0.8 h | IC50 [9]: 3500 nM | Stability at 1 μM [10]: 40% | Stability at 5 μM [10]: 61% | Stability at 1 μM [11]: 88% | Stability at 5 μM [11]: 98% | IC50 [12]: 1.8 nM | Ki [12]: 2 nM | Human transporter ratio ([12]; 5-HT (reference = 1)): 1 | Stability at 1 μM [13]: 89% | Stability at 5 μM [13]: 100%
